In patent US20250381184A1, “PHARMACEUTICAL COMBINATION COMPRISING AN ANTI-CD3 ANTIBODY AND A CXCR3 ANTAGONIST” (Idorsia Pharmaceuticals Ltd, priority 2022, published 2025):

B1: visilizumab: humanized IgG2 anti-CD3 antibody with two point mutations in its Fc portion for FcR non-binding properties (antibody, chains of the INN, looked up, V domains shown)
VH: QVQLVQSGAEVKKPGASVKVSCKASGYTFISYTMHWVRQAPGQGLEWMGYINPRSGYTHYNQKLKDKATLTADKSASTAYMELSSLRSEDTAVYYCARSAYYDYDGFAYWGQGTLVTVSS
VL: DIQMTQSPSSLSASVGDRVTITCSASSSVSYMNWYQQKPGKAPKRLIYDTSKLASGVPSRFSGSGSGTDFTLTISSLQPEDFATYYCQQWSSNPPTFGGGTKVEIK

Assays:
[1] = tested on: CXCR3-expressing CD8+ T cell migration into the BAL; experiment: LPS-induced lung inflammation model, BAL CXCR3+CD8+ T cells by flow cytometry; type: in vivo, Male DBA/1 mice
[2] = COMPOUND plasma concentration in LPS-induced lung inflammation model; type: in vivo, Male DBA/1 mice; conditions: food admix, increasing doses
Experimental: Groups of 11 to 22 mice are given food mixed with different concentrations of COMPOUND (food admix) starting 3 days prior the LPS challenge and continuing during the whole duration of the experiment. The study consists of seven treatment groups: • 1. Control food admix (no COMPOUND), n=22 • 2. Food admix containing 0.006 mg COMPOUND per g food, n=12 • 3. Food admix containing 0.02 mg COMPOUND per g food, n=12 • 4. Food admix containing 0.06/0.07 mg COMPOUND per g food, n=24 • 5. Food admix containing 0.2 mg COMPOUND per g food, n=12 • 6. Food admix containing 0.6 mg COMPOUND per g food, n=11 • 7. Food admix containing 2 mg COMPOUND per g food, n=11
The experiment is terminated at day 3, 72 hours post LPS challenge. BAL is collected and number of T cells expressing CXCR3 quantified by flow cytometry as described in Pouzol et al., Front Pharmacol 2021,12(2991), doi: 10.3389/fphar.2021.748740. Plasma samples are taken for COMPOUND concentration determination.

NOD mice = experiment: Spontaneous T1D model (NOD mice), blood glucose values; type: in vivo; conditions: for % of reduction from Isotype/vehicle group: BGV at week 40 of age; for efficacy on the BGV: therapeutic setting
Description: The efficacy of COMPOUND and of an anti-CD3 monoclonal antibody alone or in combination, or the combination of an anti-CD3 monoclonal antibody and anti-CXCL10 monoclonal antibody can be determined in inducible and spontaneous mouse models of T1D.
The efficacy of COMPOUND and the anti-CD3 monoclonal antibody alone or in combination can be determined in non-obese diabetic (NOD) mice, a spontaneous model for studying T1D (Chen et al. Front Endocrinol 2018, 9:51).
Blood glucose concentrations may be measured using a dynaValeo glucometer from dynamiCARE.
NOD mice usually develop diabetes defined as a blood glucose value (BGV)≥300 mg/dl between 13 and 30 weeks of age.
Groups of 14 to 17 mice are treated in a therapeutic setting, starting from the first measurement of diabetes (BGV≥300 mg/dL) for each mouse (day 1). Mice are randomized based on BGV and age at treatment initiation in five treatment groups: • Group 1: Isotype injected i.v., q.d., from day 1 to day 3+ control food from day 1 until end of the study (Isotype/vehicle) • Group 2: Isotype injected i.v., q.d., from day 1 to day 3+ food loaded with COMPOUND (0.6 mg/g of food) from day 1 until end of the study (Isotype/COMPOUND) • Group 3: Anti-CD3 antibody (30 μg), i.v., q.d., from day 1 to day 3+ control food from day 1 until end of the study (anti-CD3/vehicle) • Group 4: Anti-CD3 antibody (30 μg), i.v., q.d., from day 1 to day 3+ anti-CXCL10 antibody (100 μg), i.p., from day 4 to day 19 (administrations every 2nd/3rd day, 8 administations in total)+control food from day 1 until end of the study (anti-CD3/anti-CXCL10) • Group 5: Anti-CD3 antibody (30 μg), i.v., q.d., from day 1 to day 3+ food loaded with COMPOUND (0.6 mg/g of food) from day 1 until end of the study (anti-CD3/COMPOUND)
BGVs are assessed on a weekly basis and are compared between Isotype/control food-treated mice (group 1) and mice receiving the different treatments. For each mouse the experiment is terminated when the respective mouse reaches 40 weeks of age.
In this sub-analysis, only the mice not severely hyperglycemic at treatment initiation (defined as 300 mg/dL≤BGV≤400 mg/dL) were included in the study results.

[3] = tested on: patients with severe corticosteroid-refractory ulcerative colitis; conditions: 15 μg/kg/day reduced to 10 μg/kg/day; cited from earlier work

Molecule	CXCR3+CD8+ T cell migration into the BAL ([1]; dose 0.6 mg of COMPOUND/g of food)	BAL CXCR3+CD8+ T cells ([1]; preventive setting, food admix 0.006 to 2 mg COMPOUND per g food from 3 days prior LPS, BAL 72 hours post LPS challenge)	COMPOUND plasma concentration [2]	% of reduction from Isotype/vehicle group (NOD mice; NOD mice, n = 14-17/group) [%]	% of reduction from Isotype/vehicle group (NOD mice; non-severe diabetic NOD mice, n = 7-11/group) [%]	efficacy on the BGV (NOD mice; NOD mice)	BGV at week 40 of age (mg/dL) (Mean ± SEM) (NOD mice; NOD mice, treatment from BGV≥300 mg/dL, n = 14-17/group)	BGV at week 40 of age (mg/dL) (Mean ± SEM) (NOD mice; non-severe diabetic NOD mice (300 mg/dL ≤ BGV ≤ 400 mg/dL at treatment initiation), n = 7-11/group)	efficacy on the BGV (NOD mice; non-severe diabetic NOD mice sub-analysis)	mice that showed disease progression (NOD mice; non-severe diabetic NOD mice, end of the study period) [%]	patients demonstrating a clinical response [3] [%]
Cc1ncn(CC(=O)N2CCN(c3sc(C(F)(F)F)nc3-c3cnc(C(F)(F)F)nc3)C[C@H]2CCO)n1 [COMPOUND, 1-{(R)-2-(2-Hydroxy-ethyl)-4-[2-trifluoromethyl-4-(2-trifluoromethyl-pyrimidin-5-yl)-thiazol-5-yl]-piperazin-1-yl}-2-(3-methyl-[1,2,4]triazol-1-yl)-ethanone]	significantly and maximally reduces	dose-dependent decrease	dose-dependent increase	9	13	minimal	540.9 ± 35.4	517.3 ± 63.9	minimal	86	–
B1	–	–	–	–	–	–	–	–	–	–	84
